US20090247497A1, “FORMULATION AND USE OF ERGOSTA-7,22-DIEN-3BETA-OL” (priority 2008, published 2009)

System: human promyelocytic leukemia HL-60 cells
Test: in vivo anti-tumor (anti-leukemia) study, HL-60 xenografts in nude mice
Design: species or system Athymic nude mice (BALB/c nu/nu)
Details: for % inhibition for 1.5 mg/kg/day dosage group: 1.5 mg/kg/day oral (gastric gavage), from relative tumor weight vs control
Method: The following study on nude mice was conducted to investigate the in vivo anti-tumor activities, specifically the anti-leukemia effects, of ergosta-7,22-dien-3β-ol.
Athymic nude mice (BALB/c nu/nu, with body weight of 20-25 g and aged 6-10 weeks) were kept in autoclaved cages with polyester fiber filters to avoid contact with the pathogens. All the animal diet and tap water were autoclaved before feeding to nude mice ad libitum.
Suspension of 1×10^7 of human promyelocytic leukemia HL-60 cells was then injected subcutaneously (s.c.) into the dorsal side of nude mice.
In this study, the tested item was the powders of ergosta-7,22-dien-3β-ol obtained according to the method described in Example 1 above.
When palpable tumors (about 100-200 mm^3 in volume) arose within 14-21 days after injection, the mice were randomly divided into three treatment groups and one control group in which each group consisted of 15 mice. Then, the mice in the treatment group were administrated with the tested item at three dose levels of 1.5, 15.0 or 50.0 mg (of tested item)/kg (of body weight of mouse)/day (in distilled water), while those mice in the control group were administrated with distilled water (as control vehicle). Both groups of mice were administrated by oral route (gastric gavage) daily (except Sundays) for up to 28 days. Tumor dimension was measured on every Mondays, Wednesdays and Fridays.
Tumor dimension was measured by Vernier caliper and tumor weight and tumor volume were calculated according to the following formulae:
Tumor weight (mg)=L×W^2×π/6; and
Tumor volume (mm^3)=L×W×H×π/6;
where L, W, and H were the major dimension, the minor dimension, and the height of the tumor respectively (π=3.1416).
The relative tumor weight was calculated by dividing the tumor weight on a certain day by the mean tumor weight on Day 1. Similarly, the relative tumor volume was calculated by dividing the tumor volume on a certain day by the mean tumor volume on Day 1.
Upon 28 days of administration, the nude mice were euthanized and the final body and tumor weights were recorded for calculating the ratio of the final tumor-to-body weight.
The above-shown results were expressed as the mean±SE of the percentage of inhibition of the tested item on the growth of HL-60 xenografts in nude mice in single experiments. Percentage of inhibition (for any Day n) was calculated from the following formula:
(1−relative tumor weight of treatment group on Day n/relative tumor weight of control group on Day n)×100%.

[1] = 1.5, 15.0 or 50.0 mg/kg/day oral, up to 28 days, all three treatment groups, 1.5 mg/kg/day most significant

Q: What does the source list for `CC(C)[C@@H](C)/C=C/[C@@H](C)[C@H]1CC[C@H]2C3=CCC4C[C@@H](O)CC[C@]4(C)[C@H]3CC[C@]12C` (stereo partly drawn) [ergosta-7,22-dien-3β-ol]?
A: Anti-tumor activity (1.5, 15.0 and 50.0 mg/kg/day oral, HL-60 xenografts in nude mice): observed at all three dosage groups; percentage ratios of final tumor-to-body weight (1.5, 15.0 or 50.0 mg/kg/day oral, after 28 days, three treatment groups vs control, 1.5 mg/kg/day most significant): lower than that of the control group; relative tumor volume [1]: some effects in the reductions; relative tumor weight [1]: some effects in the reductions; % inhibition for 1.5 mg/kg/day dosage group (Day 1, HL-60 xenografts in nude mice): 0.00%; % inhibition for 1.5 mg/kg/day dosage group (Day 3, HL-60 xenografts in nude mice): 11.35%; % inhibition for 1.5 mg/kg/day dosage group (Day 5, HL-60 xenografts in nude mice): 11.24%; % inhibition for 1.5 mg/kg/day dosage group (Day 8, HL-60 xenografts in nude mice): 23.69%; % inhibition for 1.5 mg/kg/day dosage group (Day 10, HL-60 xenografts in nude mice): 31.65%; % inhibition for 1.5 mg/kg/day dosage group (Day 12, HL-60 xenografts in nude mice): 32.32%; % inhibition for 1.5 mg/kg/day dosage group (Day 15, HL-60 xenografts in nude mice): 30.61%; % inhibition for 1.5 mg/kg/day dosage group (Day 17, HL-60 xenografts in nude mice): 34.99%; % inhibition for 1.5 mg/kg/day dosage group (Day 19, HL-60 xenografts in nude mice): 43.19%; % inhibition for 1.5 mg/kg/day dosage group (Day 22, HL-60 xenografts in nude mice): 38.94%; % inhibition for 1.5 mg/kg/day dosage group (Day 24, HL-60 xenografts in nude mice): 40.57%; % inhibition for 1.5 mg/kg/day dosage group (Day 26, HL-60 xenografts in nude mice): 44.32%
